Consider 6 molecules from patent US20260034124A1, “NOVEL SALTS AND CRYSTALS” (INTRA-CELLULAR THERAPIES, INC., priority 2022, published 2026).

Like-named read-outs stand apart in the source and are kept apart here.

Data set [1] can be described thus: Aqueous solubility determination, saturated solution shaken in water, LC. In kind it is physicochemical. As to conditions: slurried 24 hours, filtered. On the procedure:
The aqueous solubility of the successfully reproduced salts is determined by shaking a saturated solution in water. The solubility at pH 7.4 is determined by shaking a saturated solution in a phosphate buffered system. The samples are prepared by the addition of a known amount of water (100-200 μl) and subsequent slurrying with the solid for 24 hours. All samples are then filtered using syringe filters to remove undissolved solids, and then the filtrates are diluted with methanol/acetonitrile (1:1 v/v). LC analysis of the samples is performed, and a calibration line is used for the determination of the solubilities.

Data set [2] addresses H1 histaminergic (Homo sapiens, UniProt P35367). The following applies: cited from earlier work.
In data set [3] the target is T1, 5-HT2C (Homo sapiens, UniProt P28335).
T1 sequence (P28335 33-458): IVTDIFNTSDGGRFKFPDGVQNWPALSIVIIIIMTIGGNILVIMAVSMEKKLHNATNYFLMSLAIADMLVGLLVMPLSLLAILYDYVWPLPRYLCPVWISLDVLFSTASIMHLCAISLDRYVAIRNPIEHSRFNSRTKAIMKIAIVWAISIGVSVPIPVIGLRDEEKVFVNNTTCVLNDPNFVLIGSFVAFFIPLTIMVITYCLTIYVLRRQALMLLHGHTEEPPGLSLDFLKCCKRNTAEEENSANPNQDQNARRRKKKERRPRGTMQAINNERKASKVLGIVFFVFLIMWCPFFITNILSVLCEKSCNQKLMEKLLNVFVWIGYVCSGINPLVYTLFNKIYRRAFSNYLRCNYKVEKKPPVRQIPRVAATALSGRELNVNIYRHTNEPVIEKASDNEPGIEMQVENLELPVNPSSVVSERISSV
The following applies: cited from earlier work.

The test system of data set [4] is muscarinic. As to conditions: cited from earlier work.
For data set [5] the following is noted: free base form, cited from earlier work.

Chain of H1 histaminergic (P35367 whole entry): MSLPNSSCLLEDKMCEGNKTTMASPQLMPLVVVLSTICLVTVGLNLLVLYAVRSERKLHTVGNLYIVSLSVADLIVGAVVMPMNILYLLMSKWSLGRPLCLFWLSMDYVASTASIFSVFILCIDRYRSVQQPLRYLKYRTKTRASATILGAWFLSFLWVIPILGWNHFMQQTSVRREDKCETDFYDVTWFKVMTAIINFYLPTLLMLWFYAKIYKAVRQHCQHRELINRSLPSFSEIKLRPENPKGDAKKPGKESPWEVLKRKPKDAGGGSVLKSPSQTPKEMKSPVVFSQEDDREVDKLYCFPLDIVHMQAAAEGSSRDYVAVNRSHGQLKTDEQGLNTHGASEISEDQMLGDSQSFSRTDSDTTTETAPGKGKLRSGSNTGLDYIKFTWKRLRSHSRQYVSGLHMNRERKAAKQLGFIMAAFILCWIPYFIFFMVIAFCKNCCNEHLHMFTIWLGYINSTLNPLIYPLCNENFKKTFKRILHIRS

`CCCCCCCCc1ccc(S(=O)(=O)O)cc1.CN1CCN2c3c(cccc31)[C@@H]1CN(CCCC(=O)c3ccc(F)cc3)CC[C@@H]12` [4-octylbenzenesulfonate salt, lumateperone 4-octylbenzenesulfonate salt]: the “Aqueous Solubility” value in data set [1] was determined as 6 µg/mL.

As to `CC(C)(C)c1ccc(S(=O)(=O)O)cc1.CN1CCN2c3c(cccc31)[C@@H]1CN(CCCC(=O)c3ccc(F)cc3)CC[C@@H]12` [4-t-butylbenzenesulfonate salt, lumateperone 4-tert-butylbenzenesulfonate salt], in data set [1], the “Aqueous Solubility” value was 770 µg/mL.

With `CCCc1ccc(S(=O)(=O)O)cc1.CN1CCN2c3c(cccc31)[C@@H]1CN(CCCC(=O)c3ccc(F)cc3)CC[C@@H]12` [Example 4, lumateperone 4-propylbenzenesulfonate salt], in data set [1], the “Aqueous Solubility” value is 1620 µg/mL. With `CCCCCS(=O)(=O)O.CN1CCN2c3c(cccc31)C1CN(CCCC(=O)c3ccc(F)cc3)CCC12` (stereo not shown) [Example 8, lumateperone pentane-1-sulfonic salt], in data set [1], the “Aqueous Solubility” value came to 18770 µg/mL. Take `CCCCCCCS(=O)(=O)O.CN1CCN2c3c(cccc31)C1CN(CCCC(=O)c3ccc(F)cc3)CCC12` (stereo not shown) [Example 9, lumateperone heptane-1-sulfonic salt]: the “Aqueous Solubility” value in data set [1] stood at 4300 µg/mL. Take `CN1CCN2c3c(cccc31)[C@@H]1CN(CCCC(=O)c3ccc(F)cc3)CC[C@@H]12` [Lumateperone, 4-((6bR,10aS)-3-methyl-2,3,6b,9,10,10a-hexahydro-1H-pyrido[3′,4′: 4,5]pyrrolo[1,2,3-de]quinoxalin-8(7H)-yl)-1-(4-fluorophenyl)-1-butanone]: in data set [2], the “binding to H1 histaminergic receptors” value was “negligible binding”. In data set [3], the “binding to 5-HT2C receptors” value is reported as “negligible binding”. Moreover, the “binding to muscarinic receptors” value in data set [4] is on record as “negligible binding”. Moreover, the “aqueous solubility of free base (in words)” value in data set [5] (listed as ITI-007) is on record as “poor aqueous solubility”; in data set [5] (listed as Lumateperone free base), “very low water-solubility”.
